Results on three compounds are retold here after patent US20070253953A1, “Molecular Signature of the Pten Tumor Suppressor” (REGENTS OF THE UNIVERSITY OF CALIFORNIA, THE, priority 2003, published 2007).

One assay relates to PTEN mutated tumors. The following applies: cited from earlier work.
Another assay deals with LNCaP cells. The assay is described as follows: Cell cycle analysis of LNCaP cells treated with PI3K inhibitor. It counts as cell-based. The text has this:
FIG. 5. IGFBP2 plays a functional role in the PI3K-Akt pathway. (A) Cell cycle analysis of vector or IGFBP2 infected LNCaP cells treated with PI3K inhibitor (LY294002). (B and C) Clonagenic assay on wild-type or IGFBP2 knockout mouse embryonic fibroblasts with or without constitutive-active Akt expression (B), or myc expression (C). To examine if IGFBP2 is involved in the PI3K signaling, a pharmacological approach was employed. Consistent with the result in FIG. 3B, LNCaP cells have a high basal level of Akt activation. […] To examine if IGFBP2 plays a biological role for Akt function, clonogenic assay was performed using IGFBP2 knockout MEF (23). While Akt promoted colony formation in IGFBP2 wild type MEF (FIG. 5B, top and left panel), deletion of IGFBP2 abrogated this promoting activity. The requirement of IGFBP2 is specific to Akt because c-myc promoted colony formation in both cells (FIG. 5C). The inability of Akt to promote colony formation in IGFBP2 knockout MEF can be rescued by re-introduction of IGFBP2 (FIG. 5B).

A further assay deals with IGFBP2. The following applies: patients treated (ref 28); cited from earlier work.

For the compound `CO[C@H]1C[C@@H]2CC[C@@H](C)[C@@](O)(O2)C(=O)C(=O)N2CCCC[C@H]2C(=O)O[C@H]([C@H](C)C[C@@H]2CC[C@@H](OC(=O)C(C)(CO)CO)[C@H](OC)C2)CC(=O)[C@H](C)/C=C(\C)[C@@H](O)[C@@H](OC)C(=O)[C@H](C)C[C@H](C)/C=C/C=C/C=C/1C` [CCI-779], the “inhibition of PTEN mutated cancer cells” value with PTEN mutated tumors (PTEN mutated cancer cells) is recorded as “effectively inhibits”. The “sensitivity of tumors with PTEN mutations” value in the assay with PTEN mutated tumors (tumors with PTEN mutations (refs 22, 27)) is “more sensitive”.

In the case of `O=c1cc(N2CCOCC2)oc2c(-c3ccccc3)cccc12` [LY294002], the “decrease of the percentage of cells in S phase” value with LNCaP cells was 40%. With “IGF-l: insulin-like growth factor 1, a stimulus for Akt activation”, the “level of IGFBP2 in serum” value with IGFBP2 was “elevated level”.
